The numbers were not newly measured in patent US5122376A, “Calcitonin gene related peptide” (ISF Societa per Azioni, priority 1989, dated 1992), which cites them from elsewhere.

The conditions of the data set: compared with sodium caprate.

As to `CC1(C)[C@@H](O)CC[C@]2(C)[C@H]3C(=O)C=C4[C@@H]5C[C@@](C)(C(=O)[O-])CC[C@]5(C)CC[C@@]4(C)[C@]3(C)CC[C@@H]12.[Na+]` [sodium glycyrrhetinate], the “absorption-enhancing agent for insulin (nasal absorption)” value is given as “weaker than sodium caprate”.
